The source made the active and inactive calls. Bounds are passed on as bounds.

The target of experiment [1] is T1, Ubiquitin-conjugating enzyme E2 N (Homo sapiens, UniProt P61088).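 Further: Dose-response confirmation in a TR-FRET assay detecting UBC13-driven polyubiquitin chain formation, inhibition measured.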
T1 sequence (P61088 whole entry): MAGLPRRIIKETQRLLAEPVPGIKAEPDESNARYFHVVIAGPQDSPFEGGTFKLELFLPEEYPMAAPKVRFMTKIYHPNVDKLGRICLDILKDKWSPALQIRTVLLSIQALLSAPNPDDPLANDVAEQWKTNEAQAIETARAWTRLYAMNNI
The format is functional.

A short description of experiment [2]: Luminescence Cell-Based Dose Retest to Confirm Inhibitors of Cancer Stem Cells. [Related pubchem assays (depositor defined):AID2717, AID2721]. The format is functional. As to conditions: Homo sapiens.
For experiment [3], the target named is Neurotensin receptor type 1 (Homo sapiens, UniProt P30989). The format is functional.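 Further: Image-based confirmatory dose-response assay measuring agonist activity at NTR1; NTR1-expressing U2OS osteosarcoma cells imaged for beta-arrestin GFP spot formation; agonist potency where compounds increase beta-arrestin recruitment.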
The target in experiment [4] is Cytochrome P450 3A4 (Homo sapiens, UniProt P08684). As to conditions: Potency.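 Further: confirmatory qHTS run detecting inhibitors and substrates of CYP3A4.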
Experiment [5] deals with Peroxisome proliferator-activated receptor gamma/Nuclear receptor coactivator 3 (Homo sapiens, UniProt P37231). The format is functional.
Experiment [6] concerns the target Peroxisome proliferator-activated receptor gamma/Nuclear receptor coactivator 1 (Homo sapiens, UniProt P37231). Type of experiment: functional.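 Further: agonist potency as compounds enhance coactivator SRC-1 recruitment to PPARgamma.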
The target in experiment [7] is Peroxisome proliferator-activated receptor gamma/Nuclear receptor coactivator 2 (Homo sapiens, UniProt P37231). The format is functional.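 Further: agonist potency for raising coactivator recruitment to the receptor.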
In experiment [8] the target is T2, Lysosomal acid glucosylceramidase (Homo sapiens, UniProt P04062).
T2 sequence (P04062 whole entry): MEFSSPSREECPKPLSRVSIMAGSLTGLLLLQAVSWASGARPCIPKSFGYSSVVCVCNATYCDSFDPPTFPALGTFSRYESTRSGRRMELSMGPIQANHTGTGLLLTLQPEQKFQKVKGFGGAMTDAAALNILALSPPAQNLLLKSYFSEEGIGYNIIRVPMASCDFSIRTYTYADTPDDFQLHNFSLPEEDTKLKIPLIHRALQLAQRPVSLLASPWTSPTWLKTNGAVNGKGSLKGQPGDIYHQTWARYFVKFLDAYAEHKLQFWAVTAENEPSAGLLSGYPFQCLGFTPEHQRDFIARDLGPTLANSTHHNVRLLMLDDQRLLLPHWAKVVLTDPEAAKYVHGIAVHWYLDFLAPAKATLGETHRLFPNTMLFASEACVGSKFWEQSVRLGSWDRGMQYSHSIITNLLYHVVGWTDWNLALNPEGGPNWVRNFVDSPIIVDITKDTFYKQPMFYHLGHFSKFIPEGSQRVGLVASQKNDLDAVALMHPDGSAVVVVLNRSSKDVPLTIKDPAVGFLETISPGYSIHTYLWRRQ
Kind of experiment: Dose response cell-based high throughput screening assay to identify enhancers of beta-glucosidase activity. [Related pubchem assays: 784 ]. Type of experiment: functional.

The target of experiment [9] is Genome polyprotein (dengue virus type 2, UniProt P29990). Kind of experiment: Dengue-2 NS5 methyltransferase inhibitors, primary screen, biochemical, confirmation dose response (AID 588689). Type of experiment: functional.
In experiment [10] the target is T3, Mannose-6-phosphate isomerase (Homo sapiens, UniProt P34949).
T3 sequence (P34949 whole entry): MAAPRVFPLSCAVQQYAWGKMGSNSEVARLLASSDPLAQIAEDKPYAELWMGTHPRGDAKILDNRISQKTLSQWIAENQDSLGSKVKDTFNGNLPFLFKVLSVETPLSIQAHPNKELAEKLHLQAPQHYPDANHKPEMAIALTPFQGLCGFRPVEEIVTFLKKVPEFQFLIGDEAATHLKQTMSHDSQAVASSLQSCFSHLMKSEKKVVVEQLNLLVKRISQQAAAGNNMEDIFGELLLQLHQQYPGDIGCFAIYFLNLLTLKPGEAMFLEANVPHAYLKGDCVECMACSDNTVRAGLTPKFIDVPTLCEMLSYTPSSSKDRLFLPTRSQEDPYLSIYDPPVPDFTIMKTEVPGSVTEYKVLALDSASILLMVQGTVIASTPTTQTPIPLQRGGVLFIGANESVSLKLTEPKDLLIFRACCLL
Kind of experiment: inhibitors of human PMI, primary screen, biochemical, fluorescence intensity, coupled assay (AID 1209).

The target of experiment [11] is T4, Replicative DNA helicase DnaB (Mycobacterium tuberculosis, UniProt P9WMR3).
T4 sequence (P9WMR3 whole entry): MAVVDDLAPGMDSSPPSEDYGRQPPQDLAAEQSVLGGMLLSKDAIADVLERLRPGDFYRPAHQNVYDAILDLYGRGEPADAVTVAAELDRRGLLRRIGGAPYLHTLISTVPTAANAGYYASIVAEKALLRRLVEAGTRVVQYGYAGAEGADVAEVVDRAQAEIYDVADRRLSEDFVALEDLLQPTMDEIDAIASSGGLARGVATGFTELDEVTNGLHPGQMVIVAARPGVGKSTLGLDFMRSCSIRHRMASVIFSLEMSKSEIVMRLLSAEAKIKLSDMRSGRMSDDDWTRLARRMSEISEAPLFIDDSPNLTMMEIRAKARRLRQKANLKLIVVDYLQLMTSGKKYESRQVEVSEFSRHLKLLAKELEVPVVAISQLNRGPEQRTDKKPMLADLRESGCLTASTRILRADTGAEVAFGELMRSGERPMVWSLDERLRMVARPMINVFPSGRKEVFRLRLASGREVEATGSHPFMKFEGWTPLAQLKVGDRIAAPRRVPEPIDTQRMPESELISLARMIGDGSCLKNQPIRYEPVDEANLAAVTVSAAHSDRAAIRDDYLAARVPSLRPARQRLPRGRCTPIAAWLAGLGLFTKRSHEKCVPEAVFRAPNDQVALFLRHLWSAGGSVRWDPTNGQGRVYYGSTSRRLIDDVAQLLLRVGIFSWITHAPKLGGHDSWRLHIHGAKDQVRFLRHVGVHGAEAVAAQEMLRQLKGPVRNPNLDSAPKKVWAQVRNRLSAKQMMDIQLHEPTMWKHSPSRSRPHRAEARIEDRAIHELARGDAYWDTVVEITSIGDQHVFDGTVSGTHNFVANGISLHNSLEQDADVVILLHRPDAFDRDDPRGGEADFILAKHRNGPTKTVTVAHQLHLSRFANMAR
The experiment can be described thus: DnaB intein splicing inhibitors, dose response, biochemical, cell-free fluorescence (AID 449749). The format is functional.

In experiment [12] the target is T5, Protein RecA (Mycobacterium tuberculosis, UniProt P9WHJ3).
T5 sequence (P9WHJ3 whole entry): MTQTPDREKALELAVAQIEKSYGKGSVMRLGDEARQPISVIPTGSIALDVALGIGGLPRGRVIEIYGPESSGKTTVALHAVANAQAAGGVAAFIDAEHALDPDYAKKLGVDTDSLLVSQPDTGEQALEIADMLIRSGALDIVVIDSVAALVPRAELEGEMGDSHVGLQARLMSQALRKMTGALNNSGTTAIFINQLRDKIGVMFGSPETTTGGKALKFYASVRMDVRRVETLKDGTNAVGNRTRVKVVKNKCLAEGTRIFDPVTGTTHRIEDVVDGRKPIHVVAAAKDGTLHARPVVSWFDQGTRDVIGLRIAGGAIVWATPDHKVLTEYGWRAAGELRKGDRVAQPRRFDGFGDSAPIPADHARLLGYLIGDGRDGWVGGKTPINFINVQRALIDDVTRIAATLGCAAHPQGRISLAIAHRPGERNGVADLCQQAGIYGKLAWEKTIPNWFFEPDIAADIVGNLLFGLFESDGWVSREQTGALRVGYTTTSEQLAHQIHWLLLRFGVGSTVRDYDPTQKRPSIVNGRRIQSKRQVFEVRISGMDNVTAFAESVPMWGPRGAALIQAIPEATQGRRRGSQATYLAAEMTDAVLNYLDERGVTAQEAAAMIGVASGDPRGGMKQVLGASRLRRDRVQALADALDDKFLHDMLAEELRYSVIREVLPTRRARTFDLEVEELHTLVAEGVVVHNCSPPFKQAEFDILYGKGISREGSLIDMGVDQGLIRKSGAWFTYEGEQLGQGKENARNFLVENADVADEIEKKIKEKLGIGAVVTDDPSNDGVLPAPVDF
Kind of experiment: Fluorescence Cell-Free Homogeneous Dose Retest to Identify Inhibitors of RecA-Intein Splicing Activity. [Related pubchem assays (depositor defined):AID2097, AID2223, AID489010, AID492950]. The format is functional.

Experiment [13] has as its target T6, Polyadenylate-binding protein 1 (Homo sapiens, UniProt P11940). Kind of experiment: PABP1 MLLE–PAM2 interaction inhibitors, dose response, miRNA deadenylation inhibitor project, biochemical, fluorescence polarization, Cy5-PAM2 peptide, secondary (AID 602260). The settings on record: read-out: IC50_Mean. The format is functional. For orientation: Fluorescence polarisation rises when a labelled molecule tumbles more slowly, as on binding a larger partner.

In experiment [14] the target is T6, Polyadenylate-binding protein 1. The experiment can be described thus: PABP1 MLLE–PAM2 binding inhibitor potency, dose response, biochemical, fluorescence polarization, FITC-PAM2 peptide (AID 602259). The format is functional. As to conditions: read-out: IC50_Mean.
A short description of experiment [15]: A Cell Based Secondary Assay To Explore Cytotoxicity of Compounds that Sensitize Mycobacterium Tuberculosis to Beta-Lactam Antibiotics. Type of experiment: functional.
Experiment [16] deals with T7, Bcl-2-like protein 10 (Homo sapiens, UniProt Q9HD36).
T7 sequence (Q9HD36 whole entry): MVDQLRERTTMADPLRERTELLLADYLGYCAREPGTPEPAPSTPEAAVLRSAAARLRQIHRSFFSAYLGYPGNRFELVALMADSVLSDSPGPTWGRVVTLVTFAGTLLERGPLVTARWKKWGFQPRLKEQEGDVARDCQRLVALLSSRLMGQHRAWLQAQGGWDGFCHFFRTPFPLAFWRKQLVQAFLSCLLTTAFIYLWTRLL
The experiment can be described thus: displacers of TR3 peptide from Bcl-B, primary screen, selectivity assay for Bfl-1 inhibitor project, biochemical, fluorescence polarization, FITC-TR3 peptide (AID 748).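 Further: fluorescence polarization from a fluorescein-labelled TR3 peptide binding purified Bcl-B.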

Experiment [17] concerns the target Glyceraldehyde-3-phosphate dehydrogenase (Homo sapiens, UniProt P04406).
Experiment [18] in a line: cells. The format is functional.
Experiment [19] concerns the target Heat shock protein HSP 90-alpha (Homo sapiens, UniProt P07900). Type of experiment: functional, organism-based.
A short description of experiment [20]: Vero E6 cell cytotoxicity, dose response, cytotoxicity control for non-replicating M. tuberculosis project, secondary assay (AID 492998). As to conditions: Vero C1008. The format is functional, VeroE6.
The subject of experiment [21] is INS1. Kind of experiment: beta cell apoptosis inhibitors, cytokine rescue, dose response, luminescence, retest (AID 449756).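 Further: cell death triggered by IL-1 beta plus TNF-alpha plus IFN-gamma mixture; protective hits raise ATP signal compared with cytokine alone wells.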 The format is functional, cell-based. The settings on record: Rattus norvegicus.
Experiment [22] can be described thus: microbe, parasite or virus in culture. Type of experiment: functional. The settings on record: Mycobacterium tuberculosis.
Experiment [23] can be described thus: THP-1 cell cytotoxicity, dose response, cytotoxicity control for non-replicating M. tuberculosis project (AID 489025). Type of experiment: functional.

Sequence of Cytochrome P450 3A4 (P08684 whole entry): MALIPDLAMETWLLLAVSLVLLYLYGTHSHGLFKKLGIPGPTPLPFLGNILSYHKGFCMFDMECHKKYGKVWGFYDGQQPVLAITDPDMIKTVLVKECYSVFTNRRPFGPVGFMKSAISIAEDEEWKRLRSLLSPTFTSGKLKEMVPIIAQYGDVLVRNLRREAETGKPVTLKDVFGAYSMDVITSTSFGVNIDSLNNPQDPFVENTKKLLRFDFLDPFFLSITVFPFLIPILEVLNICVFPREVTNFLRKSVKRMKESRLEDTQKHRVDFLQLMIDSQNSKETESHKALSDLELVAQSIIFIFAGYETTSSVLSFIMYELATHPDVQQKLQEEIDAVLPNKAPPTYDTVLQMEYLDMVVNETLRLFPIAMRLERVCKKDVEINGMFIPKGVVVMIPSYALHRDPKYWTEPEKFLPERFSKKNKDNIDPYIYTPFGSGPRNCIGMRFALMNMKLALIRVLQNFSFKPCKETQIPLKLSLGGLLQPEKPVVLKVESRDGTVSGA
Sequence of Neurotensin receptor type 1 (P30989 whole entry): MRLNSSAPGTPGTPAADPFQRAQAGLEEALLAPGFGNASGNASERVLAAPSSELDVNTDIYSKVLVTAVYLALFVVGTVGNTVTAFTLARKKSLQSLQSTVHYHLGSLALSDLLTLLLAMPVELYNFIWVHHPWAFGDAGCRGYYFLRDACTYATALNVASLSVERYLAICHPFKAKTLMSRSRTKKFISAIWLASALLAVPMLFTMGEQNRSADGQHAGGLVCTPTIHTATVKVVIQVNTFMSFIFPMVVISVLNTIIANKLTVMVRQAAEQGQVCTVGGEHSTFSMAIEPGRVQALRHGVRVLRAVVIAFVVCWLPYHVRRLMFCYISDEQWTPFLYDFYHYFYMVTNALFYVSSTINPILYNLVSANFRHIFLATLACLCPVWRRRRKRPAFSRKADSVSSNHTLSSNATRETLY
T6 sequence (P11940 whole entry): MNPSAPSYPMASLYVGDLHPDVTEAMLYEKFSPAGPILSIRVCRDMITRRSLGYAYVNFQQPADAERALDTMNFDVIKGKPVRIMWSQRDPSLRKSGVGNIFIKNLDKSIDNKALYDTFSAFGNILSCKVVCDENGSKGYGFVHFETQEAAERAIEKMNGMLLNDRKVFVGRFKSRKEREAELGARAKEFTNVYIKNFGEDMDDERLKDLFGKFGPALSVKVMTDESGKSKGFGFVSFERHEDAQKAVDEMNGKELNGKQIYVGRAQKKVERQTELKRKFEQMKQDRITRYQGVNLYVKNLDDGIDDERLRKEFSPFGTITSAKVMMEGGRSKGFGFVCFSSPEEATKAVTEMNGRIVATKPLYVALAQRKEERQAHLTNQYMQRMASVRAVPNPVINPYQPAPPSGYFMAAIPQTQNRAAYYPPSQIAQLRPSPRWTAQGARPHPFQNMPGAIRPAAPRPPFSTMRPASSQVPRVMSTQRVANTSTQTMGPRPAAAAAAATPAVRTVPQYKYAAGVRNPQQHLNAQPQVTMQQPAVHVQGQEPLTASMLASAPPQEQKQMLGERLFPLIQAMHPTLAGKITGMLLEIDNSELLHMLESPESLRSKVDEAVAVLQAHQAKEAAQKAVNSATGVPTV
Sequence of Peroxisome proliferator-activated receptor gamma/Nuclear receptor coactivator 3 (P37231 whole entry): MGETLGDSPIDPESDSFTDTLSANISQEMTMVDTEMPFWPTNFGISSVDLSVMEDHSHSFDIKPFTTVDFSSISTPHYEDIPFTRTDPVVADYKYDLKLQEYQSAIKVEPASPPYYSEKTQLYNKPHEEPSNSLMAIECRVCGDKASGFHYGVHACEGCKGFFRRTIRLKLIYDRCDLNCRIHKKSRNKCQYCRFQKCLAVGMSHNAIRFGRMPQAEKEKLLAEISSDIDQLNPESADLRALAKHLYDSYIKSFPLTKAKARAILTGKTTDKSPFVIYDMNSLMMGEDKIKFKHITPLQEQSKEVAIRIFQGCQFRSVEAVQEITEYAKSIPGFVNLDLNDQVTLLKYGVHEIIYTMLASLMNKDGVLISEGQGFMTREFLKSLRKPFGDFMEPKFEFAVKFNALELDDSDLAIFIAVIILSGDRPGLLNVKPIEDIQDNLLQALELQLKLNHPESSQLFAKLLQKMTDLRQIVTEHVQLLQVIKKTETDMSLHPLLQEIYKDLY
Sequence of Peroxisome proliferator-activated receptor gamma/Nuclear receptor coactivator 3 (Q9Y6Q9 whole entry, further chain): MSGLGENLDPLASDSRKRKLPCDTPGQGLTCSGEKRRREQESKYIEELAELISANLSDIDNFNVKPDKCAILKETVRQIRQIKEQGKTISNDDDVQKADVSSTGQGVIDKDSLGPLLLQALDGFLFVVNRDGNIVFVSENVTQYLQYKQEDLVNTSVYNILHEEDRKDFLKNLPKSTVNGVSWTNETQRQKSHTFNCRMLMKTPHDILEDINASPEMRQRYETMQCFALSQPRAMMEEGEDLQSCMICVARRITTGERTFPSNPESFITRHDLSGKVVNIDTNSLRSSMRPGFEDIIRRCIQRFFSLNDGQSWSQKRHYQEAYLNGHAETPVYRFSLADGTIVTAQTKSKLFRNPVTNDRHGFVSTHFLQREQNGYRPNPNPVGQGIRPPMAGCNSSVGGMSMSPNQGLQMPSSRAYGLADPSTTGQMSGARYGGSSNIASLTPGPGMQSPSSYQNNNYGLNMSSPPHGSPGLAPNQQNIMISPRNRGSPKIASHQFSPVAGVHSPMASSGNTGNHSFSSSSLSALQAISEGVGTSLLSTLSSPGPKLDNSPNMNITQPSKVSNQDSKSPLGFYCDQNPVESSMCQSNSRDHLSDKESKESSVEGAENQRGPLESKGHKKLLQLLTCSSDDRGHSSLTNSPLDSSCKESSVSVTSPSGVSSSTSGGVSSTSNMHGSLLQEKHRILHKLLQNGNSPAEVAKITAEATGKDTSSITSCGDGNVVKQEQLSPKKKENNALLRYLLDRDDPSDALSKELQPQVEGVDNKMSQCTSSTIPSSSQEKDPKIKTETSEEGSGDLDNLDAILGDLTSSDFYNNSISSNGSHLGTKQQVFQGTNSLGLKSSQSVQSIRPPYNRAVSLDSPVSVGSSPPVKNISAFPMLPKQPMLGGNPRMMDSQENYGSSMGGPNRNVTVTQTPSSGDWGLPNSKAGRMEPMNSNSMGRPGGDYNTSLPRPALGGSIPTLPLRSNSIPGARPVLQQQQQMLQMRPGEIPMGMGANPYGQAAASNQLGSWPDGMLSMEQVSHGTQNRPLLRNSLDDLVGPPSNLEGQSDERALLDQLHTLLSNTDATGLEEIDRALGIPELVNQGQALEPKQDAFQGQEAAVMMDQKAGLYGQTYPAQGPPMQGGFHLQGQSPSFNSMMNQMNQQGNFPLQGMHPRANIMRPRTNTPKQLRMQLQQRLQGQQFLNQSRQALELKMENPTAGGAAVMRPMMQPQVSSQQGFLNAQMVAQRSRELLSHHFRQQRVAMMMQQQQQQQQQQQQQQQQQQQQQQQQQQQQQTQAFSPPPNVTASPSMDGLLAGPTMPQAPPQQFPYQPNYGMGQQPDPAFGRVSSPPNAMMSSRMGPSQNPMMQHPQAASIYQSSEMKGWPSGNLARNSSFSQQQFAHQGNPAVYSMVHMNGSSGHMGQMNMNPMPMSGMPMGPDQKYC
Sequence of Genome polyprotein (P29990 2492-3391 limits assumed): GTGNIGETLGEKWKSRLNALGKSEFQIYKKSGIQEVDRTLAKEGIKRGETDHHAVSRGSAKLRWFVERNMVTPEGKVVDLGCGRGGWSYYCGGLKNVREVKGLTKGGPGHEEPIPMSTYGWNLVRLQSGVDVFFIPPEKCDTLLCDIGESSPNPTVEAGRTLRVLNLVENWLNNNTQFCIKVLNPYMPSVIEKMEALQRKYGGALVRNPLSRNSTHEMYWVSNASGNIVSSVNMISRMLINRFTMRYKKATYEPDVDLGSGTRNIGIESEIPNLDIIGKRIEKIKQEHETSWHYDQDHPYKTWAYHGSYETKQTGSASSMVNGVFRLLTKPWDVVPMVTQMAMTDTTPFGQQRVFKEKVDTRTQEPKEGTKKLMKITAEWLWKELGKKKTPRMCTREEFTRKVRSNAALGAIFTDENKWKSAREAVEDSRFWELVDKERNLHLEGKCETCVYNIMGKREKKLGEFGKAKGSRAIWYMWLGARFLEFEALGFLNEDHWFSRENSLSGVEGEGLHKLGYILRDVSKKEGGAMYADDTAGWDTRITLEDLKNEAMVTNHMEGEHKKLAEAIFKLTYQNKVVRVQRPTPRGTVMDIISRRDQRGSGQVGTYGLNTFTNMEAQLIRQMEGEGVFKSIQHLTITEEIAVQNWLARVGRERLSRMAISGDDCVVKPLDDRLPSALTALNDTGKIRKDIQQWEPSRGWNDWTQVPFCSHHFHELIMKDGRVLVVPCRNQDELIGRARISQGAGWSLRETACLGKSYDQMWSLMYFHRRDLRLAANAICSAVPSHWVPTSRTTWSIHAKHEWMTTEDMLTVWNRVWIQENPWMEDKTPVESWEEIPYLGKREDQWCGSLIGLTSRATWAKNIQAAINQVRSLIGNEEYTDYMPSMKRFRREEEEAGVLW
Sequence of Glyceraldehyde-3-phosphate dehydrogenase (P04406 whole entry): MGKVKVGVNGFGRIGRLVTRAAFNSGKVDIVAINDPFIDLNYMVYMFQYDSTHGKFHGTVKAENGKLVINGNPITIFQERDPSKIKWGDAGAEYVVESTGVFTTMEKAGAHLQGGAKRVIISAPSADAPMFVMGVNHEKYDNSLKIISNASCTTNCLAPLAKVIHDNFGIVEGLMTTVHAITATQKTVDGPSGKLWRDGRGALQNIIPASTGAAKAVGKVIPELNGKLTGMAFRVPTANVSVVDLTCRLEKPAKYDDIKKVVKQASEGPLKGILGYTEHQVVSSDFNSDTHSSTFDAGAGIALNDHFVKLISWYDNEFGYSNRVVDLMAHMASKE

Usually AC50 stands for the concentration at which the activity in the assay is half-maximal. Usually EC50 stands for the concentration that produces a half-maximal response. Regarding `CC1CCN(CCCNC(=O)c2ccc3c(=O)n(Cc4ccc(Cl)cc4)c(=S)[nH]c3c2)CC1`, in experiment [1], the IC50 was > 20 µM (inactive). Also, the half-maximal activity concentration (AC50) in experiment [2] is 6.37 µM (active). Besides, in experiment [3], the half-maximal effective concentration (EC50) is 17.9 µM (active).

In the case of `COc1ccc(N)c(OC)c1`, in experiment [4], the concentration at half-maximal activity (AC50) was 25.1 µM (inconclusive).

Regarding `O=S(=O)(Nc1cccc(C(F)(F)F)c1)c1cnc[nH]1`, the EC50 in [5], in experiment [6] and in experiment [7] was > 79.4 µM (not active) throughout.

Take `C=CCn1c(S)nnc1-c1c[nH]c2ccccc12`: the EC50 in [8] is listed as > 50 µM (not active).

Regarding `CN1C[C@@H]2C(c3ccc(Cl)nc3)C3(c4ccc(C#N)cc4)CC2(C3)[C@H]1c1ccccc1` (some centres not stated), in experiment [4], the AC50 is 15.8 µM (inconclusive).

Turning to `O=C(O)CC1SC(N/N=C/c2ccc(-c3ccc(Cl)cc3[N+](=O)[O-])o2)=NC1=O` (configuration not stated), the IC50 was 34.8 µM (active) in experiment [9] and > 50 µM (not active) in [10]. For the same molecule, the AC50 in [11] is > 380 µM (inactive). Further, the concentration for a half-maximal effect (EC50) in [12] is 4.61 µM (active).

On to `COc1cc(-c2nc(S(=O)(=O)c3ccc(C)cc3)c(N3CCOCC3)o2)cc(OC)c1OC`, for which the IC50 in [13] and in experiment [14] was > 66 µM (inactive) in each case. Besides, the CC50 in [15] is > 40 µM (active).

`CCOC(=O)c1c(C)cc(OC)cc1O` [ETHYL EVERNINATE]: in [4], the AC50 is 31.6 µM (inconclusive).

As for `Cc1cc(C)nc(Nc2ccc(N3CCCC3)cc2)n1`, the IC50 in experiment [16] is 61.9 µM (inactive).

For `O=C(O)CSc1nc(-c2ccccc2)cs1`, the IC50 in experiment [17] is reported as > 100 µM (not active).

Regarding `Nc1ccccc1C#CC(=O)c1ccccc1`, the IC50 in experiment [18] was 4.2 µM (active). In addition, the EC50 in experiment [3] is 8.09 µM (active). Moreover, the concentration at half-maximal activity (AC50) in experiment [19] was 5.42 µM (active); in experiment [21], 7.81 µM (active). The CC50 in experiment [20] was 17.4 µM (active); in experiment [22], 16.9 µM (active); in experiment [23], 23.5 µM (active).

For the molecule `Cc1ccccc1OCC(=O)N(Cc1cccs1)C1CCS(=O)(=O)C1` (configuration not stated), the EC50 in [8] is given as > 50 µM (not active).

On to `COc1cc2c(cc1OC)C(Nc1ccc(S(N)(=O)=O)cc1)=NC(C)(C)C2`, for which the EC50 in [5], in experiment [6] and in [7] was > 79.4 µM (not active) throughout.

As to `CC1CC1C(=O)Nc1nc(-c2cccs2)c(-c2cccs2)s1` (configuration not stated), the CC50 in experiment [15] is > 40 µM (active).

Turning to `Cc1ccc(-n2nnnc2Sc2nc([N+](=O)[O-])nn2C)cc1`, the CC50 in experiment [15] is 16.5 µM (active).

(Values after ChEMBL document CHEMBL1201862, “PubChem BioAssay data set” (2004).)
